Results as given in paper PMC7995636 (Bioorganic & medicinal chemistry, 2021).

Legend:
[1] = system: HeLa cells; assay: SRB assay, HeLa; format: cell-based; settings: Homo sapiens, read-out: IC50 ± SD in HeLa
[2] = system: HeLa WT-βIII cells; assay: SRB assay, HeLa WT-βIII; format: cell-based; settings: Homo sapiens, read-out: IC50 ± SD in WT βIII
[3] = biological target: PDGFR-β (Homo sapiens, UniProt P09619); assay: Phosphotyrosine ELISA, PDGFR-β kinase inhibition; format: cell-based; settings: compared to 1
[4] = biological target: Bovine brain tubulin (Bos taurus, UniProt Q6B856); assay: Inhibition of tubulin assembly; format: biochemical
[5] = system: P-glycoprotein (Pgp); settings: cited from earlier work
[6] = system: breast cancer resistance protein (BCRP1); settings: cited from earlier work
[7] = higher in brain; cited from earlier work

Sequence of Bovine brain tubulin (Q6B856 whole entry): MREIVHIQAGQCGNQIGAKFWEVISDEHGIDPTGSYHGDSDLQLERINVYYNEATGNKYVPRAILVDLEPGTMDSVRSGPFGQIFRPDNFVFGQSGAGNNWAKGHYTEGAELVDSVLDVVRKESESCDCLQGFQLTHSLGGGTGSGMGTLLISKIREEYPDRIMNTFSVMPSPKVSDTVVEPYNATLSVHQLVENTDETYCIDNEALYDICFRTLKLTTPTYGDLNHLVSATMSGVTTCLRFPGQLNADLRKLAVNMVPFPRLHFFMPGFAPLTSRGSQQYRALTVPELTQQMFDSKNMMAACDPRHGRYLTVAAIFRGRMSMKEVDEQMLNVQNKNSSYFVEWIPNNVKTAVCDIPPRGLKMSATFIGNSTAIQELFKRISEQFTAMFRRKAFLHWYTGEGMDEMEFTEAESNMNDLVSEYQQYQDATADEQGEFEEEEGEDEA
Sequence of Bovine brain tubulin (P81947 whole entry partner): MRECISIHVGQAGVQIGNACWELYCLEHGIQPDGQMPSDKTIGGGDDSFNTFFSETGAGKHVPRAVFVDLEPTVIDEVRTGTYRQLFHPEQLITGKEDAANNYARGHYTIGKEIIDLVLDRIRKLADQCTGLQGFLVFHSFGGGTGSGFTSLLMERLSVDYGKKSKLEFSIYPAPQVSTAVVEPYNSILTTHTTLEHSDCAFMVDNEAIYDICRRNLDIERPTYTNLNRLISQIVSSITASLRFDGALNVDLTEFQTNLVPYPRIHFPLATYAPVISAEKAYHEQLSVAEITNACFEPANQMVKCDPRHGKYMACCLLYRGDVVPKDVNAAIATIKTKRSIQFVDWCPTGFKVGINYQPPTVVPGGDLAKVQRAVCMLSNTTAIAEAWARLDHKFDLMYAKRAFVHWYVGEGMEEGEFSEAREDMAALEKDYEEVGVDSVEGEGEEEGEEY
Sequence of PDGFR-β (P09619 33-1106): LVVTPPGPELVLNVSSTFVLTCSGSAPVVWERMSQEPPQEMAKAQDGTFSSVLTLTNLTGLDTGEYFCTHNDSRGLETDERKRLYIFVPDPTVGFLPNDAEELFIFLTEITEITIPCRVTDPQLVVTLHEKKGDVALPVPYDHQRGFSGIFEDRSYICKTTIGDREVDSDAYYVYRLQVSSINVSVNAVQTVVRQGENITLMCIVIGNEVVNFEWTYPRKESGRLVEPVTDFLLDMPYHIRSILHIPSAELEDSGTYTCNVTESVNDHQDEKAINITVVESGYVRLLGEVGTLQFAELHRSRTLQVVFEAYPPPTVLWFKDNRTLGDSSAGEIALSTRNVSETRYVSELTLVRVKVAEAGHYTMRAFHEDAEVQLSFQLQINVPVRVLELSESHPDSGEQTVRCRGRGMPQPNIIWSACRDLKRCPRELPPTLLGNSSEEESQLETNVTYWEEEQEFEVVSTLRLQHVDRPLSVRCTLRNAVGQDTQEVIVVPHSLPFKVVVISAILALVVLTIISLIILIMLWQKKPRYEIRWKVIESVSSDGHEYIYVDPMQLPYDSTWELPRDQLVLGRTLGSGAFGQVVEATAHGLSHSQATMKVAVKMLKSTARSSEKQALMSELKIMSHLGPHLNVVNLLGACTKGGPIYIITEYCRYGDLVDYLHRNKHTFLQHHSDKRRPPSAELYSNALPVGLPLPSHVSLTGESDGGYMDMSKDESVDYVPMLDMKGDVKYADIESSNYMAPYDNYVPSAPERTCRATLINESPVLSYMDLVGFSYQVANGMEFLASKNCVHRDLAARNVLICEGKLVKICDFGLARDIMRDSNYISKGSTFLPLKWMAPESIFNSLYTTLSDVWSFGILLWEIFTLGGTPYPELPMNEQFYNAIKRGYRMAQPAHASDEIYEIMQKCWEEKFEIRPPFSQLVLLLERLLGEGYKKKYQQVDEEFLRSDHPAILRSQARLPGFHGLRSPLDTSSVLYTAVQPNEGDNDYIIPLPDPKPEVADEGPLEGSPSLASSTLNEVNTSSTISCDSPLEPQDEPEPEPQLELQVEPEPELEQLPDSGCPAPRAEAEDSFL

`CC(=O)O[C@H]1C(=O)[C@@]2(C)[C@H]([C@H](OC(=O)c3ccccc3)[C@]3(O)C[C@H](OC(=O)[C@H](O)[C@@H](NC(=O)c4ccccc4)c4ccccc4)C(C)=C1C3(C)C)[C@]1(OC(C)=O)CO[C@@H]1C[C@@H]2O` [Paclitaxel] gave an IC50 [1] of 2.8 ± 0.4 nM and an IC50 [2] of 24 ± 0.2 nM.

In the case of `COc1cccc2cc(N(C)c3nc(C)nc4ccccc34)ccc12` [Compound 4, N-(5-Methoxynaphthalen-2-yl)-N,2-dimethylquinazolin-4-amine], the “fold loss of potency with PDGFR-β” value [3] is reported as ~ 5 fold and the IC50 [4] is reported as 640 ± 10 nM.

Molecule `CSc1ccc(N(C)c2nc(C)nc3ccccc23)cc1` [Compound 3, N,2-Dimethyl-N-(4-(methylthio)phenyl)quinazolin-4-amine] has an IC50 [4] of 480 ± 70 nM.

In the case of `COc1ccc(N(C)c2nc(C)nc3ccccc23)cc1` [Compound 1, N-(4-Methoxyphenyl)-N,2-dimethylquinazolin-4-amine], the “substrate for P-glycoprotein (Pgp)” value [5] is listed as “not a substrate”, the “substrate for breast cancer resistance protein (BCRP1)” value [6] is listed as “not a substrate” and the “concentrations in the brain compared to the plasma” value [7] is listed as 30 fold.

Work on `COc1ccc(N(C)c2nc(Cl)nc3ccccc23)cc1` [Compound 8, 2-Chloro-N-(4-methoxyphenyl)-N-methylquinazolin-4-amine] yielded an IC50 [4] of 470 ± 20 nM.
